Results: patent publication US20210284659A1, “INHIBITORS OF BETA SECRETASE” (Janssen Pharmaceutica NV, priority 2017, published 2021)

Experiments:
[1] = molecular target: T1, β-secretase II (BACE2) (Homo sapiens, UniProt Q9Y5Z0); experiment: Automated (CyclOps) biochemical assay BACE2; details: 37 °C, 60 min, pH 5.0; read-out: Automated assay BACE2 pIC50 (converted)
T1 sequence (Q9Y5Z0 63-518): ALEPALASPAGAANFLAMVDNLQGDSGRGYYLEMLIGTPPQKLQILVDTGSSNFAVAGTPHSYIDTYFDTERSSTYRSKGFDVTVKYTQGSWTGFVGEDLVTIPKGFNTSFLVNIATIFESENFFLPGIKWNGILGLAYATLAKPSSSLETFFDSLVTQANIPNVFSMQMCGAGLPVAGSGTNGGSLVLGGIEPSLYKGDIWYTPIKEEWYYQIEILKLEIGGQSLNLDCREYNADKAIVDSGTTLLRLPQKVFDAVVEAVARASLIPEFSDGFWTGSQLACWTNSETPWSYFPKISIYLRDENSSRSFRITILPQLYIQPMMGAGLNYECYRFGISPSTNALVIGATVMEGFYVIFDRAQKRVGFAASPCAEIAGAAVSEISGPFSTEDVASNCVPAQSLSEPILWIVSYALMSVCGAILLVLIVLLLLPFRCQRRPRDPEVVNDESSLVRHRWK
Method: (§1) Unless otherwise indicated all biochemicals were purchased from Sigma-Aldrich Chemical Company, Poole, Dorset, U.K. and non-aqueous solvents, of analytical or higher grade, were purchased from ThermoFisher Scientific, Loughborough, U.K. MilliQ water (Elix 5 & MilliQ Gradient; Merck Millipore) was used as the base aqueous solvent to make up the biological buffers. Base assay buffer was prepared by adding a 50 mM solution of citric acid (1.00244; Merck Biosciences) to stirring solution of 50 mM trisodium citrate (1.06448; Merck Biosciences) until a final pH of 5.0 was achieved. […] All assays were routinely carried out in 384-well assay plates (Costar 4514; Corning Life Sciences) and incubated at 37±1° C. for 60 min. prior to reading the endpoint fluorescence intensity. The (7-methoxyl coumarin-4-yl)acetic acid based substrate 0-secretase substrate VI (M2465; Bachem) was prepared as a 1 mM stock in 100% DMSO (D/4121/PB08; ThermoFisher). Assay buffer was prepared by adding DMSO to base buffer to a final concentration of 1% (vol./vol.). β-secretase I (18.64 μM; “BACE1”) and β-secretase II (4.65 μM; “BACE2”) were obtained from Janssen Pharmaceutica, Beerse, Belgium and were stored as frozen aliquots (˜20 μl) and thawed as required.
(§2) The CyclOps bioassay module consisted of a fraction collection station, a reagent station, liquid handling robotics, plate store and an integrated plate reader (SpectraMAX Paradigm, TUNE cartridge, SoftMax Pro v 6.3; Molecular Devices). The fraction collection station composed of a 384 well collection plate (P-384-240SQ-C; Axygen, Union City, Calif., USA) mounted on a H-portal carriage (Festo AG & Co. KG, Esslingen, Germany), a syringe drive and a two-way six port injection valve fitted with a 200 μl loop (VICI AG International, Schenkon Switzerland). The output of the injection valve was addressable to all the positions of a 384 well collection plate. The reagent station consisted of hydraulically cooled (10-12° C.) aluminium segments; each manufactured to house a SBS microtiter plate footprint. Independent addressable reagent stations were housed within these sections. Where required, custom aluminium housings were used to accommodate standard laboratory plastic ware (e.g. Eppendorf tubes, Falcon tubes, etc.). As and when required the reagent reservoirs were covered and the lids contained holes through which the Teflon-coated probe could access solutions. The reagents present on the liquid handling system were: • Probe wash solution (˜150 ml; 33.3:33.3:33.3 water:propan-2-ol (P/7508/17; ThermoFisher):methanol (M/4058/17; ThermoFisher) contained in a covered reagent reservoir (390007; Porvair Sciences Ltd., Leatherhead, UK). • Assay buffer solution • HPLC grade water • 40 nM BACE1 diluted in base buffer contained in a 5 ml Eppendorf tube (0030 119.401; Eppendorf) • 400 nM BACE2 diluted in 25 mM tris (648311; Merck Biosciences, Nottingham, U.K.), pH 7.5 containing 100 mM sodium chloride and 20% glycerol (16374; USB Corp., Cleveland, Ohio, USA) contained in a 1.5 ml Eppendorf tube (0030 000.919; Eppendorf) • 1 mM substrate in 100% DMSO contained in a 1.5 ml Eppendorf tube (maintained at ambient temperature) • Two empty 1.5 ml Eppendorf tubes
(§3) The liquid handling system composed of a LISSY system (Zinsser Analytik GmbH, Frankfurt, Germany) equipped with gripper arm and single teflon-coated stainless steel probe. […]

[2] = molecular target: β-secretase I (BACE1) (Homo sapiens, UniProt P56817); experiment: Automated (CyclOps) biochemical assay BACE1; details: 37 °C, 60 min, pH 5.0; read-out: Automated assay BACE1 pIC50 (converted)
Sequence of β-secretase I (BACE1) (P56817 46-501): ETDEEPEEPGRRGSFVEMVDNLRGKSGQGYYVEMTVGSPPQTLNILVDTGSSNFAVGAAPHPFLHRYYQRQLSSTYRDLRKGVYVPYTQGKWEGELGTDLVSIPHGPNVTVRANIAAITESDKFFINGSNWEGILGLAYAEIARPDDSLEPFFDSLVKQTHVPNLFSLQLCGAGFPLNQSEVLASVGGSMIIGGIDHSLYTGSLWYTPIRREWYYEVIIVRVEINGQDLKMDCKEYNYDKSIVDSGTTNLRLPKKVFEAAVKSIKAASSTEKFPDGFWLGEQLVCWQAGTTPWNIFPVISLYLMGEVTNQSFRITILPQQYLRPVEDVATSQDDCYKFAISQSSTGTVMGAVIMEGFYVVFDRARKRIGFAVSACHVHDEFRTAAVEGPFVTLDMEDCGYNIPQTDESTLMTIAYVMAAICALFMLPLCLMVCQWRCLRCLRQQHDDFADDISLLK
Method: as §1, §2, §3

[3] = tested on: Abeta 1-42 produced and secreted by human neuroblastoma SKNBE2 cells expressing wild type hAPP695; experiment: Cellular αLisa assay in SKNBE2 cells, Abeta 1-42; type: cell-based; details: 18 hours incubation, read-out: Cellular αLisa assay in SKNBE2 cells Abeta 42 pIC50 (converted)
Method: In two αLisa assays the levels of Abeta total and Abeta 1-42 produced and secreted into the medium of human neuroblastoma SKNBE2 cells are quantified. The assay is based on the human neuroblastoma SKNBE2 expressing the wild type Amyloid Precursor Protein (hAPP695). The compounds are diluted and added to these cells, incubated for 18 hours and then measurements of Abeta 1-42 and Abeta total are taken. Abeta total and Abeta 1-42 are measured by sandwich αLisa. αLisa is a sandwich assay using biotinylated antibody AbN/25 attached to streptavidin coated beads and antibody Ab4G8 or cAb42/26 conjugated acceptor beads for the detection of Abeta total and Abeta 1-42 respectively. In the presence of Abeta total or Abeta 1-42, the beads come into close proximity. The excitation of the donor beads provokes the release of singlet oxygen molecules that trigger a cascade of energy transfer in the acceptor beads, resulting in light emission. Light emission is measured after 1 hour incubation (excitation at […] and emission at 615 nm).
(§4) A best-fit curve is fitted by a minimum sum of squares method to the plot of % Controlmin versus compound concentration. From this an IC50 value (inhibitory concentration causing 50% inhibition of activity) can be obtained.

[4] = molecular target: recombinant BACE1 protein (Homo sapiens, UniProt P56817); experiment: BACE1 biochemical FRET based assay; details: 450 min at room temperature, 20 μM substrate, pH 5.0
Sequence of recombinant BACE1 protein (P56817 46-501): as above
Excerpt: (§5) This assay is a Fluorescence Resonance Energy Transfer Assay (FRET) based assay. The substrate for this assay is an APP derived 13 amino acids peptide that contains the ‘Swedish’ Lys-Met/Asn-Leu mutation of the amyloid precursor protein (APP) beta-secretase cleavage site. This substrate also contains two fluorophores: (7-methoxycoumarin-4-yl) acetic acid (Mca) is a fluorescent donor with excitation wavelength at 320 nm and emission at 405 nm and 2,4-Dinitrophenyl (Dnp) is a proprietary quencher acceptor. […] Upon cleavage by BACE1, the fluorophore Mca is separated from the quenching group Dnp, restoring the full fluorescence yield of the donor. The increase in fluorescence is linearly related to the rate of proteolysis.
Briefly in a 384-well format recombinant BACE1 protein in a final concentration of 0.04 μg/ml is incubated for 450 minutes at room temperature with 20 μM substrate in incubation buffer (50 mM Citrate buffer pH 5.0, 0.05% PEG) in the presence of compound or DMSO. Next the amount of proteolysis is directly measured by fluorescence measurement (excitation at 320 nm and emission at 405 nm) at different incubation times (0, 30, 60, 90, 120 and 450 min). For every experiment a time curve (every 30 min between 0 min and 120 min) is used to determine the time where we find the lowest basal signal of the high control. The signal at this time (Tx) is used to subtract from the signal at 450 min. Results are expressed in RFU, as difference between T450 and Tx.
as §4

[5] = molecular target: T2, recombinant BACE2 protein (Homo sapiens, UniProt Q9Y5Z0); experiment: BACE2 biochemical FRET based assay; details: 450 min at room temperature, 10 μM substrate, pH 5.0
T2 sequence (Q9Y5Z0 63-518): T1 sequence (Q9Y5Z0 63-518)
Excerpt: as §5, with “assay” for “assay is an APP derived 13 amino acids peptide that”, “the beta-secretase,” for “BACE1,”
Briefly in a 384-well format recombinant BACE2 protein in a final concentration of 0.4 μg/ml is incubated for 450 minutes at room temperature with 10 μM substrate in incubation buffer (50 mM Citrate buffer pH 5.0, 0.05% PEG, no DMSO) in the absence or presence of compound. Next the amount of proteolysis is directly measured by fluorescence measurement at T=0 and T=450 (excitation at 320 nm and emission at 405 nm). Results are expressed in RFU (Relative Fluorescence Units), as difference between T450 and TO.
as §4

Structure (SMILES)	IC50 [1] [nM]	IC50 [2] [nM]	IC50 [3] [nM]	Biochemical FRET based assay pIC50 [4]	Biochemical FRET based assay pIC50 [5]
COc1ncc(Cc2ccccc2C)c2c1C[C@]1(c3ccc(F)cc3F)N=C(N)SC[C@@H]1C2 [Compound 3]	355	22.9	–	–	–
COc1ncc(Cc2cccc(Cl)c2)c2c1C[C@]1(c3ccc(F)cc3F)N=C(N)SC[C@@H]1C2 [Compound 7]	110	61.7	–	–	–
COc1cc(Cc2cnc(OC)c3c2C[C@H]2CSC(N)=N[C@@]2(c2ccc(F)cc2F)C3)cc(OC)c1 [Compound 8]	219	195	–	–	–
COc1ccc(Cc2cnc(OC)c3c2C[C@H]2CSC(N)=N[C@@]2(c2ccc(F)cc2F)C3)cc1 [Compound 5]	204	49	67.6	7.64	7.1
COc1cccc(Cc2cnc(OC)c3c2C[C@H]2CSC(N)=N[C@@]2(c2ccc(F)cc2F)C3)c1 [Compound 6]	191	75.9	–	–	–
COc1ncc(Cc2c(C)noc2C)c2c1C[C@]1(c3ccc(F)cc3F)N=C(N)SC[C@@H]1C2 [Compound 2]	–	–	2.63	8.23	7.36
COc1ncc(CC2CCOCC2)c2c1C[C@]1(c3ccc(F)cc3F)N=C(N)SC[C@@H]1C2 [Compound 1]	–	–	0.759	8.52	8.18
COc1ncc(Cc2c(C)cccc2C)c2c1C[C@]1(c3ccc(F)cc3F)N=C(N)SC[C@@H]1C2 [Compound 9]	–	–	42.7	7.99	6.56
